Results published in patent US10537611B2, “Methods of treating lung cancer” (Five Prime Therapeutics, Inc., priority 2011, dated 2020).

Legend:
[1] = tested on: G-401 xenograft model; assay: G-401 xenograft tumor growth inhibition; assay type: in vivo, mouse; conditions: Renal G-401; IP 15 mg/kg BIW; non-amplified; P < 0.05
Method: (§1) Percentage tumor growth inhibition by FGFR1-ECD.339-Fc was determined by area-under-the-curve (AUC) analysis of xenograft growth curves treated with FGFR1-ECD.339-Fc compared to albumin control. […] The difference in FGFR1-ECD.339-Fc-mediated xenograft inhibition between FGFR1 gene amplified and non-amplified lung cancer xenograft models was statistically significant (P=0.0333).
(§2) Also shown in Table 5 are the dosing schedule for FGFR1-ECD.339-Fc in a mouse xenograft model, the percent tumor growth inhibition (TGI (%)) and the statistical significance of the tumor growth inhibition (P Value), as well as whether the FGFR1 gene is amplified in the cell line.
(§3) An exemplary xenograft experiment is as follows. For Caki-1 and MSTO-211H, five million cells were implanted subcutaneously over the right flank of SCID mice (N=10 per group). […] Representative tumor growth curves are shown for a renal cancer, Caki-1, (A), and mesothelioma, MSTO-211H, (B) xenograft cancer model. […] In the MSTO-211H mesothelioma model, FGFR1-ECD.339-Fc administration reduced tumor growth (FIG. 16b) by 64% (P<0.0001).

[2] = tested on: A498 xenograft model; assay: A498 xenograft tumor growth inhibition; assay type: in vivo, mouse; conditions: Renal A498; IP 15 mg/kg BIW; non-amplified; P ns
Method: as §1, §2, §3

[3] = tested on: NCI-H520 xenograft model; assay: NCI-H520 NSCLC xenograft tumor growth inhibition; assay type: in vivo, mouse; conditions: Lung NCI-H520, IP 20 mg/kg BIW, FGFR1 amplified, P < 0.05
Method: Six week old female SCID mice were purchased from Charles River Laboratories (Wilmington, Mass.) and were acclimated for 1 week before the start of the study. Human non-small cell lung cancer (NSCLC) cell line NCI-H520 was used as the tumor model and was purchased from ATCC (Manassas, Va.; Cat. No. HTB-182). The cells were cultured for three passages in RPMI-1640 Medium+10% FBS+2 mM L-glutamine at 37° C. in a humidified atmosphere with 5% CO2. When the cultured cells reached 85-90% confluence, cells were harvested and resuspended in cold Ca^2+ and Mg^2+ free phosphate buffered saline (PBS) containing 50% Matrigel at 5×10^7 cells per milliliter. The cells were implanted subcutaneously over the right flank of the mice at 5×10^6 cells/100 μl/mouse. One day following cell implantation mice were sorted and randomized (n=10) and treatment initiated as described below. […]
Tumor sizes were measured in each mouse on days 11, 18, 25, 32, 39 and 46 following the day of tumor cell inoculation. The length and width of each tumor was measured using calipers and the tumor size calculated according to the formula: Tumor size (mm^3)=[…] Mice were euthanized as a “cancer death” when the subcutaneous tumor volumes exceeded 2000 mm^3 or when the tumors became excessively necrotic.

[4] = tested on: NCI-H2126 xenograft model; assay: NCI-H2126 xenograft tumor growth inhibition; assay type: in vivo, mouse; conditions: Lung NCI-H2126; IP 15 mg/kg BIW; non-amplified; P ns
Text: (§4) The impact of FGFR1-ECD.339-Fc on tumor growth was compared between FGFR1 gene amplified and non-amplified lung cancer xenograft models. Lung cell lines without FGFR1-amplification examined in this experiment were as follows: A549, NCI-H460, NCI-H226, NCI-H2126, NCI-H441, NCI-H358, NCI-H522 and Colo699. Non-amplified cell lines were purchased from ATTC (Manassas, Va.) and cultured according to supplier instructions. Lung cancer xenograft models using non-FGFR1 gene amplified cell lines were carried out substantially as described in Example 2.
as §1

[5] = tested on: NCI-H441 xenograft model; assay: NCI-H441 xenograft tumor growth inhibition; assay type: in vivo, mouse; conditions: Lung NCI-H441; IP 15 mg/kg BIW; non-amplified; P ns
Text: as §4, §1

[6] = tested on: NCI-H522 xenograft model; assay: NCI-H522 xenograft tumor growth inhibition; assay type: in vivo, mouse; conditions: Lung NCI-H522, IP 10 mg/kg BIW, non-amplified, P < 0.05
Text: as §4, §1

[7] = tested on: Du145 xenograft model; assay: Du145 xenograft tumor growth inhibition; assay type: in vivo, mouse; conditions: Prostate Du145; IP 0.15 mg/kg 3×/w; non-amplified; P ns
Method: as §1, §2, §3

[8] = tested on: MFE-280 xenograft model; assay: MFE-280 xenograft tumor growth inhibition; assay type: in vivo, mouse; conditions: Endometrial MFE-280; IP 15 mg/kg BIW; non-amplified; P < 0.001
Method: as §1, §2, §3

[9] = tested on: lung cancer xenografts with FGFR1 gene amplification; assay: Tumor growth inhibition, lung cancer xenografts with FGFR1 gene amplification (average); assay type: in vivo, mouse; conditions: AUC analysis vs albumin control; FGFR1 gene amplified lung xenografts
Text: as §4, §1

[10] = Histological analysis of 55 tissues in rats; assay type: in vivo, rat; conditions: high-dose
Method: At the 200 mg/kg/qwk dose the maximal plasma concentration of the drug was 3.6 and 4.2 mg/ml for female and male rats, respectively (FIG. 18A).

[11] = tested on: VEGF-induced proliferation of HUVEC cells; assay: VEGF-A induced HUVEC proliferation; assay type: cell-based, human; conditions: 10 μg/ml; 15 ng/ml VEGF-A165; 3 days, CellTiter-Glo
Method: (§5) To determine whether FGFR1-ECD.339-Fc blocks VEGF-induced proliferation of endothelial cells, HUVEC cells (Life Technologies, Grand Island, N.Y.) were seeded at a density of 4×10^3 cells/well in basal media (Medium 200 (Life Technologies) with 2% heat inactivated FBS) and stimulated with either 10 ng/ml FGF2 (R&D Systems, Minneapolis, Minn.) or 15 ng/ml VEGF-A165 (R&D Systems, Minneapolis, Minn.) either in the presence of absence of 10 μg/ml FGFR1-ECD.339-Fc. HUVEC cell proliferation was determined 3 days post-stimulation using CellTiter-Glo® Luminescent Cell Viability Assay.

[12] = tested on: FGF-2 induced HUVEC proliferation; assay: FGF-2 induced HUVEC proliferation; assay type: cell-based, human; conditions: 10 μg/ml; 10 ng/ml FGF2; 3 days, CellTiter-Glo
Method: as §5

## FGFR1-ECD.339-Fc: human FGFR1 extracellular domain ending at amino acid 339 fused to an Fc; SEQ ID NO: 6 (mature form), SEQ ID NO: 5 with signal peptide
[1]
  TGI (%): 36%
[2]
  TGI (%): 7%
[3]
  TGI (%): 47%
[4]
  TGI (%): 0%
[5]
  TGI (%): 0%
[6]
  TGI (%): 42%
[7]
  TGI (%): 31%
[8]
  TGI (%): 96%
[9]
  average reduction in tumor growth: 56%
[10]
  histological changes (hyperphosphatemia-related calcium-phosphorus deposition): failed to reveal any changes
[11]
  VEGF-induced proliferation of HUVECs: did not block
[12]
  FGF-2 induced HUVEC proliferation: capable of blocking
